Source: paper PMC3042376, “The elicitation of a systemic resistance by Pseudomonas putida BTP1 in tomato involves the stimulation of two lipoxygenase isoforms” (BMC Plant Biology, 2011)

Biological target: T1, TomLOXF (Solanum lycopersicum, UniProt C0KKU8)
T1 construct: gene loxF; predicted chloroplast transit peptide (54 residues, ChloroP) excluded; N-terminal His tag of pET28-a kept; E. coli BL21; about 100 kDa; full precursor 903 residues; partially purified on nickel
T1 sequence (C0KKU8 55-902): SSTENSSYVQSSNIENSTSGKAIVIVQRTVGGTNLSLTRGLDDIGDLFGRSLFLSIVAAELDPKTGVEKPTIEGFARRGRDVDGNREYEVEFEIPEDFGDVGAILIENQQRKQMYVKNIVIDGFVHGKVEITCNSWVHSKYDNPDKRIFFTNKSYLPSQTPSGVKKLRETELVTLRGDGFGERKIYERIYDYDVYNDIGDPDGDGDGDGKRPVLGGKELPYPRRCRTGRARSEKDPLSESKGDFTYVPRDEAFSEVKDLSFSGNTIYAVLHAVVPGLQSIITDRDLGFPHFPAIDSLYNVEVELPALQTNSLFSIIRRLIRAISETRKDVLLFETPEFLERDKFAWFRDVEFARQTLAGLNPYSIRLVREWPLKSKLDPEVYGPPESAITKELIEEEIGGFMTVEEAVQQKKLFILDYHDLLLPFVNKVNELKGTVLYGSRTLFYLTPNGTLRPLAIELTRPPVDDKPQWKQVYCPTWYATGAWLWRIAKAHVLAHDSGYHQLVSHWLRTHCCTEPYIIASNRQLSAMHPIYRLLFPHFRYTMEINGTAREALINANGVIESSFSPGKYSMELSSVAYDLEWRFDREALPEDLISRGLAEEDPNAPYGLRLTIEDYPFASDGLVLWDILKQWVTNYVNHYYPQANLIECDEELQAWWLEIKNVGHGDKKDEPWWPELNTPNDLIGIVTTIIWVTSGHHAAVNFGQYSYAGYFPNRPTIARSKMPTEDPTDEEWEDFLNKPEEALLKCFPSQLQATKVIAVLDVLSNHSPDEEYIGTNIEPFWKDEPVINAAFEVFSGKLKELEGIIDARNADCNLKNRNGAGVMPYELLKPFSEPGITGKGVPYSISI
Test: hydroperoxide formation at […] nm; products by HPLC
Type: biochemical
Settings: pH 6.0, room temperature, oxygenated phosphate buffer, partially purified enzyme

| SMILES | hydroperoxide formation at 234 nm; products by HPLC (product 13-HPOD, weaker substrate) | hydroperoxide formation at 234 nm; products by HPLC (product 13-HPOT, preferred substrate) |
| --- | --- | --- |
| CCCCC/C=C\C/C=C\CCCCCCCC(=O)O [C18:2, linoleic acid] | Partially-purified TOMLOXF showed a higher activity on linolenic acid than on linoleic acid |  |
| CC/C=C\C/C=C\C/C=C\CCCCCCCC(=O)O [C18:3, linolenic acid] |  | Partially-purified TOMLOXF showed a higher activity on linolenic acid than on linoleic acid |
